These results are taken from patent US4908314A (priority 1987, dated 1990).

One may read the Ki as a measure of affinity in units of concentration, obtained from inhibition or displacement. Read a low Ki as higher affinity.

Test [1] deals with protein C activator of Klein et al. The settings on record: cited from earlier work.
In test [2] the test system is plasminogen activator inhibitor (PAI). The test can be described thus: Neutralization of plasminogen activator inhibitor activity in vitro. It counts as biochemical.
A short description of test [3]: Amidolysis of chromogenic substrates. It counts as biochemical.
The target in a further test is T1, Factor VIIIa (Homo sapiens, UniProt P00451).
T1 sequence (P00451 20-391 limits assumed): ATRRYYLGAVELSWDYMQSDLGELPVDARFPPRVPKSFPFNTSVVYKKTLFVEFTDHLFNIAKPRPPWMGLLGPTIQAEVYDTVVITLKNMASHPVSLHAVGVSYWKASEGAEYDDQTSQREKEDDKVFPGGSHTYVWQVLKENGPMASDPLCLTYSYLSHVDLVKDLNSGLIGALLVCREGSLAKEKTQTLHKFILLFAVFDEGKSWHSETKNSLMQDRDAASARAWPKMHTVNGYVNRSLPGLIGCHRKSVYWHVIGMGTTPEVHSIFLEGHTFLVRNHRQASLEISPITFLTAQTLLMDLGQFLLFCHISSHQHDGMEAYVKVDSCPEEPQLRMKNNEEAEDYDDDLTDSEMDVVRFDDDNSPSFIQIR
T1 sequence (P00451 392-759 limits assumed): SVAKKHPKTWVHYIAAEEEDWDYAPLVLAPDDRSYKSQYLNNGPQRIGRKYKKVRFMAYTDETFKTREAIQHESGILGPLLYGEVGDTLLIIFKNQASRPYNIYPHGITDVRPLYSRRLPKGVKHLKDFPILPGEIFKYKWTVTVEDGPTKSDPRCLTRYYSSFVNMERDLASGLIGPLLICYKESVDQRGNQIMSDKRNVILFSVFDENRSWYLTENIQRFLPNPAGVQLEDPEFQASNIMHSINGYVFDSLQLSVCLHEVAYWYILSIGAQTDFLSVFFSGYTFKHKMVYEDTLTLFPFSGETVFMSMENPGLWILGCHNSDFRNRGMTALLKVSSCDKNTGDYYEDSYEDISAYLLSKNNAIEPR
T1 sequence (P00451 1709-2351 limits assumed): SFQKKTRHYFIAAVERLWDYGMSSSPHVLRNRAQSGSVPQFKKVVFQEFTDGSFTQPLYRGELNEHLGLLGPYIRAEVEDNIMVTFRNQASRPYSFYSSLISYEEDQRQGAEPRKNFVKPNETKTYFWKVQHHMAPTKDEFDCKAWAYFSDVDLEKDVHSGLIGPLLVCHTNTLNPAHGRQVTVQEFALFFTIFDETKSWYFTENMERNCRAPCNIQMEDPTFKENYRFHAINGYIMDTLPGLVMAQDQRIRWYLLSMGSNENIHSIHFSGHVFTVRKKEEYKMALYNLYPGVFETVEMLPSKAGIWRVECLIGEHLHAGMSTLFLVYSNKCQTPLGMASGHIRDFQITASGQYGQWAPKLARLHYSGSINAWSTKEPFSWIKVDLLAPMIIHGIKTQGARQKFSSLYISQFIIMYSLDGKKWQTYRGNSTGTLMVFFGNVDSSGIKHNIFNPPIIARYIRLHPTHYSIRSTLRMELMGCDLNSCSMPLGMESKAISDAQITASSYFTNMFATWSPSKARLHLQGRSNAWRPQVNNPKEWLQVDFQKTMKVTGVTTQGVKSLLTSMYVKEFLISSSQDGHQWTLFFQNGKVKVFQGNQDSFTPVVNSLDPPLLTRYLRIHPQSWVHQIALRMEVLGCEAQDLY
Put plainly: Inactivation of Factor VIIIa in vitro. The format is biochemical. The settings on record: picomolar concentrations.

Test [4] concerns the target protein C activator of the present invention (Agkistrodon contortrix contortrix, UniProt P09872). Put plainly: biochemical. The format is biochemical.
Another test deals with Protac®. The settings on record: cited from earlier work.
The test system of test [5] is protein C activator of the present invention. Put plainly: biochemical. The format is biochemical, Agkistrodon contortrix contortrix.

protein C activator of the present invention (Agkistrodon contortrix contortrix, UniProt P09872), sequence (P09872 whole entry, looked up): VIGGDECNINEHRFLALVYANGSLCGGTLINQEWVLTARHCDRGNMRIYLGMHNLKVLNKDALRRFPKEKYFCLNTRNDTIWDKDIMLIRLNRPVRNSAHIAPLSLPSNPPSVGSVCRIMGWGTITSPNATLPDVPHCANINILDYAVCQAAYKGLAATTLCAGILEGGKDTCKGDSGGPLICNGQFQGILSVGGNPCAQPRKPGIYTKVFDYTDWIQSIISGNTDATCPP

With Antithrombin III, in test [1], the “Inhibition of activity of the Klein et al activator” value is “no effect”.

For the molecule activated protein C, the “neutralization of PAI activity” value in test [2] is recorded as “neutralization”. Also, the “activity of amidolysis of chromogenic substrates compared with thrombin-activated protein C” value in test [3] is “approximately the same activity”. Besides, the “inactivation of Factor VIIIa” value at Factor VIIIa is “rapid inactivation”. Consider `N=C(N)Nc1ccc(C(=O)Oc2ccc([N+](=O)[O-])cc2)cc1` [p-nitrophenyl, p-guanidinobenzoate], for which the “Inhibition of activity of the activator by serine protease inhibitors” value (“Inhibition of activity of the activator” for short) in test [4] is recorded as “inhibited”. `NC(=O)CI` [iodoacetamide]: the “Inhibition of activity of Protac” value with Protac® is recorded as “not inhibited”. As to `NC(N)=NCCC[C@H](NC(=O)[C@@H]1CCCN1C(=O)[C@H](N)Cc1ccccc1)C(=O)CCl` [D-Phe-Pro-Arg-chloromethylketone], in test [5], the “fold higher Ki than the Ki of thrombin inhibition” value is given as “approximately 500 fold”. In test [4], the “Inhibition of activity of the activator” value is reported as “inhibited” and the Ki turned out to be 34 µM.

As for `O=S(=O)(F)Cc1ccccc1` [phenylmethylsulphonylfluoride], the “Inhibition of activity of the activator” value in test [4] was “inhibited”.

B1: soybean trypsin inhibitor: serine protease inhibitor protein (protein, UniProt P01070 25-205, looked up)
Trypsin inhibitor A: DFVLDNEGNPLENGGTYYILSDITAFGGIRAAPTGNERCPLTVVQSRNELDKGIGTIISSPYRIRFIAEGHPLSLKFDSFAVIMLCVGIPTEWSVVEDLPEGPAVKIGENKDAMDGWFRLERVSDDEFNNYKLVFCPQQAEDDKCGDIGISIDHDDGTRRLVVSKNKPLVVQFQKLDKESL
Take B1: the “Inhibition of activity of the activator” value in test [4] is recorded as “inhibited”. The “Inhibition of activity of the Klein et al activator” value in test [1] is “inhibited”.
